Experimental data from patent US8859543B2, “Imidazo[1,2-a]pyrazine derivatives and their use for the prevention or treatment of neurological, psychiatric and metabolic disorders and diseases” (Janssen Pharmaceutica NV, priority 2010, dated 2014).
Where two headings read alike, the source gives them in different places.

How the values were obtained:
PDE2A = PDE2A (Homo sapiens, UniProt O00408); assay: In vitro PDE selectivity assay, PDE2A; format: biochemical
Protocol: (§1) Rat recombinant PDE10A (rPDE10A2) was expressed in Sf9 cells using a recombinant rPDE10A baculovirus construct. Cells were harvested after 48 h of infection and the rPDE10A protein was purified by metal chelate chromatography on Ni-sepharose 6FF. […] The reaction was incubated for 60 min. at RT. […] After sedimentation of the beads during 30 min. the radioactivity was measured in a Perkin Elmer Topcount scintillation counter and results were expressed as cpm. For blank values the enzyme was omitted from the reaction and replaced by incubation buffer. […] The same assay principle is applied for the measurement of the affinity of the compound for other members of the PDE family with appropriate modifications in incubation buffer, substrate concentration, incubation time and stop solution.

[1] = target: T1, Rat recombinant PDE10A (rPDE10A2) (Rattus norvegicus, UniProt Q9QYJ6); assay: In vitro assay PDE10A (SPA, 3H-cAMP); format: biochemical
T1 construct: made in house; host or cells: Sf9 insect cells, baculovirus
T1 sequence (Q9QYJ6 1-794): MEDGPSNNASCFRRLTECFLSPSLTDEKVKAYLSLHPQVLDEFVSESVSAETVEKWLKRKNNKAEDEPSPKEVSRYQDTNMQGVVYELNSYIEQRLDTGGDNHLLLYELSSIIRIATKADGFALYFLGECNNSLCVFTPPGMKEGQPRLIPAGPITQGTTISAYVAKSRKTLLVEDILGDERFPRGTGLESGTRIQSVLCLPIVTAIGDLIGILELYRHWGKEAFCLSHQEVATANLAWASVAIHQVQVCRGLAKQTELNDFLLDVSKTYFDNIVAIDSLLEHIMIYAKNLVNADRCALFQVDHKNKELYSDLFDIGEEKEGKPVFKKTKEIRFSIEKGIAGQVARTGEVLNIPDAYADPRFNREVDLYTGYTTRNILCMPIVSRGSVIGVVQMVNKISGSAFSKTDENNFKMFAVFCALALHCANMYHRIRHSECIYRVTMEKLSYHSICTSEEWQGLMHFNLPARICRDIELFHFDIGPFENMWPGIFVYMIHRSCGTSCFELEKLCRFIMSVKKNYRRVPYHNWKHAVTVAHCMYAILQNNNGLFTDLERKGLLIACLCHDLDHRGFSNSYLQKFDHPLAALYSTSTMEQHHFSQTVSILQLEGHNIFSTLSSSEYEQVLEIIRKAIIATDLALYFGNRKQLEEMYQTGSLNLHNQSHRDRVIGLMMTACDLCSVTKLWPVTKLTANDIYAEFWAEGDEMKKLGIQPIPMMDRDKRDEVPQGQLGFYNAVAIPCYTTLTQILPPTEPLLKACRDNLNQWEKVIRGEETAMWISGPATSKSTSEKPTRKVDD
In short: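 Purified Sf9-expressed rat PDE10A2 incubated 60 min at RT with 60 nM cAMP plus 0.008 μCi 3H-cAMP in 50 mM Tris pH 7.8, 8.3 mM MgCl2, 1.7 mM EGTA, 1% DMSO final. Product quantified by scintillation proximity counting against no-enzyme blanks and DMSO controls.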

[2] = system: apomorphine-induced stereotypy; assay: Apomorphine-induced stereotypy in rats (APO); format: in vivo; conditions: Rattus norvegicus
Protocol: Apomorphine-Induced Stereotypy in Rats (APO)
Apomorphine (1.0 mg/kg, i.v.)-induced stereotypy (compulsive sniffing, licking, chewing) was scored every 5 min. over the first hour after injection of apomorphine, following a 1 hour interval pre-treatment with the test compound. The score system was: (3) pronounced, (2) moderate, (1) slight, and (O) absent.

[3] = system: scopolamine induced memory deficit; assay: Object recognition test (scopolamine induced memory deficit); format: in vivo, rat; conditions: rats
Protocol: They were kept under a 12/12-hour light/dark cycle (lights on from 19.00 to 7.00 h) and had free access to food and water. […] A radio, which was playing softly, provided background noise in the room. […] The apparatus consisted of a circular arena, 83 cm in diameter. […] The light intensity was equal in the different parts of the apparatus, as fluorescent red tubes provided a constant illumination of about 20 lux on the floor of the apparatus. […] Each object was available in triplicate. Four different sets of objects were used. A testing session consisted of two trials. […] During the first trial (T1) the apparatus contained two identical objects (samples). Rats were placed in the apparatus facing the wall at the middle of the front (transparent) segment. After the first exploration period the rat was put back in its home cage. […] Exploration was defined as follows: directing the nose to the object at a distance of no more than 2 cm and/or touching the object with the nose. Sitting on the object was not considered as exploratory behavior.

[4] = system: conditioned avoidance response; assay: Conditioned avoidance response (CAR) test; format: in vivo; conditions: Rattus norvegicus
Text: Conditioned Avoidance Response (CAR) Test
The apparatus consisted of an inner box surrounded by an outer box. The inner box was composed of four walls of transparent, synthetic material (length×width×height: 30×30×30 cm), an open top, and a grid floor made of 15 pairs of iron bars (2 mm diameter; 6 mm inter-bar distance). Odd and even bars were connected with a source of alternative current (1.0 mA; Coulbourn Instruments Solid State Shocker/Distributor), which could be interrupted by a switch. The outer box was composed of the same material (length×width×height: 40×40×36 cm), also with an open top, with a distance of 5 cm between the inner and outer box on all sides. To decrease the amount of environmental stimuli, three walls of the outer box were made non-transparent. The front wall was left transparent to allow the necessary inspection of the animal during the test. The upper edge of the outer and inner box served as a target for the rats on which to jump with fore- and hind-paws, respectively.
From their arrival in the laboratory on the experimental day, male Wiga Wistar rats (230±30 g) were housed in individual cages provided with bedding material.
The rats were tested 3 times, i.e. at 60, 90 and 120 min after the injection of test compound or solvent. Latency to avoidance was recorded. The median avoidance response obtained over the three experimental sessions for each rat were used for further calculations.

PDE10 = target: T2, PDE10 (Rattus norvegicus, UniProt Q9QYJ6); assay: PDE10 occupancy ([3H]-MP-10, striatum); format: in vivo; conditions: administered s.c.; for ED50: rat, sc, occupancy, read-out: Occ. ED50
T2 construct: from tissue; host or cells: rat brain sections, striatum (ex vivo autoradiography after in vivo dosing)
T2 sequence (Q9QYJ6 1-794): T1 sequence (Q9QYJ6 1-794)
Protocol: Dose-response or single dose experiments were performed to measure PDE10 occupancy 1 hour after subcutaneous (s.c.) or oral (p.o.) administration. Male Wistar rats (200 g) were treated by s.c. or p.o. administration of various PDE10 inhibitors. The PDE10 radioligand [^3H]-MP-10 (10 μCi/animal) was injected intravenously (i.v.) 30 minutes before sacrifice. Brains were immediately removed from the skull and rapidly frozen. Twenty μm-thick brain sections were cut using a cryostat-microtome, thaw-mounted on microscope slides and loaded in a β-imager to quantify PDE10 occupancy in the striatum.

[5] = system: PCP-induced hyperlocomotion; assay: PCP-induced hyperlocomotion in rats (PCP); format: in vivo; conditions: Rattus norvegicus
PDE11A = PDE11A (Homo sapiens, UniProt Q9HCR9); assay: In vitro PDE selectivity assay, PDE11A; format: biochemical; conditions: Table 4a in vitro selectivity; read-out: IC50 PDE type 11A
Chain of PDE11A (Q9HCR9 whole entry, species assumed): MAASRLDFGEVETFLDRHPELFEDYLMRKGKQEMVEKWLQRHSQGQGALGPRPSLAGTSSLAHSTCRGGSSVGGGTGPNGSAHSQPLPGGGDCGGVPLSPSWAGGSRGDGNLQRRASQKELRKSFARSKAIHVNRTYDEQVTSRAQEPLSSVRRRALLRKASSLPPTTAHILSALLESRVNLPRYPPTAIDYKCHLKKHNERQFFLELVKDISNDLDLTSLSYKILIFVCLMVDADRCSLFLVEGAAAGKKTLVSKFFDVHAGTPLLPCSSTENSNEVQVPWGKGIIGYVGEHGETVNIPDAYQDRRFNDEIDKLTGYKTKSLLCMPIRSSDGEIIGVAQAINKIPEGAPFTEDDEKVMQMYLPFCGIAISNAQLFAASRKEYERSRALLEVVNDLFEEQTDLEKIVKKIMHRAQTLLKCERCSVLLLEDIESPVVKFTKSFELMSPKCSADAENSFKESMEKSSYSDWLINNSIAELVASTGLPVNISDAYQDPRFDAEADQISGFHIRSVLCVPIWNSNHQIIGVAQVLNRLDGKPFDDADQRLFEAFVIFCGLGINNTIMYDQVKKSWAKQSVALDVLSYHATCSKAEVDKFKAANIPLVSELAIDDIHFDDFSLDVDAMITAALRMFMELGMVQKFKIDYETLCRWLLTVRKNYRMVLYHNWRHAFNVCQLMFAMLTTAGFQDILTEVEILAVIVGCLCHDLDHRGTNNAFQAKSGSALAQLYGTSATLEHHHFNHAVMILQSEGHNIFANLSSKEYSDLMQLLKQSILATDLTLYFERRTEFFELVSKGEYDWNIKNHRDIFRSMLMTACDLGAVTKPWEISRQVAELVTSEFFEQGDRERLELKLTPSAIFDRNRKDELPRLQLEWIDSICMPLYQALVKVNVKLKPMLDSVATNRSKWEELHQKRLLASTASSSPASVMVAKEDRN
Protocol: as §1

PDE9A = PDE9A (Homo sapiens, UniProt O76083); assay: In vitro PDE selectivity assay, PDE9A; format: biochemical
Chain of PDE9A (O76083 whole entry): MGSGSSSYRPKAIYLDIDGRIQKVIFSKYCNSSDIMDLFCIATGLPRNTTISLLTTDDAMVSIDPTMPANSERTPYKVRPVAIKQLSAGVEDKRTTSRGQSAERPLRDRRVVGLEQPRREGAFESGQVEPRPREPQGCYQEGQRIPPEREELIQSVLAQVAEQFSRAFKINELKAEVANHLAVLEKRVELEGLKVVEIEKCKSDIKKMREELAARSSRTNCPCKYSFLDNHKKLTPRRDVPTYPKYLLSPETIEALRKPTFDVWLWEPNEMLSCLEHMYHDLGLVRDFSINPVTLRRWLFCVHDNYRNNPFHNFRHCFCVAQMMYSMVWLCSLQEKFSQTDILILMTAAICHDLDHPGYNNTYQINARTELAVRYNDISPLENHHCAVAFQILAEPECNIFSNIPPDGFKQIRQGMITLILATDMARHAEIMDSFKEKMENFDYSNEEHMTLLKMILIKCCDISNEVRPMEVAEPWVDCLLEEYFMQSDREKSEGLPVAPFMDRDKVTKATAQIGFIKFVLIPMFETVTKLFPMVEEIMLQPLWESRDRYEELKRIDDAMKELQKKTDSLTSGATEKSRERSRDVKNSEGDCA
Protocol: as §1

PDE4D = PDE4D (Homo sapiens, UniProt Q08499); assay: In vitro PDE selectivity assay, PDE4D; format: biochemical; conditions: Table 4a in vitro selectivity; read-out: IC50 PDE type 4D
Protocol: as §1

PDE7A = PDE7A (Homo sapiens, UniProt Q13946); assay: In vitro PDE selectivity assay, PDE7A; format: biochemical; conditions: Table 4a in vitro selectivity; read-out: IC50 PDE type 7A
Chain of PDE7A (Q13946 whole entry, species assumed): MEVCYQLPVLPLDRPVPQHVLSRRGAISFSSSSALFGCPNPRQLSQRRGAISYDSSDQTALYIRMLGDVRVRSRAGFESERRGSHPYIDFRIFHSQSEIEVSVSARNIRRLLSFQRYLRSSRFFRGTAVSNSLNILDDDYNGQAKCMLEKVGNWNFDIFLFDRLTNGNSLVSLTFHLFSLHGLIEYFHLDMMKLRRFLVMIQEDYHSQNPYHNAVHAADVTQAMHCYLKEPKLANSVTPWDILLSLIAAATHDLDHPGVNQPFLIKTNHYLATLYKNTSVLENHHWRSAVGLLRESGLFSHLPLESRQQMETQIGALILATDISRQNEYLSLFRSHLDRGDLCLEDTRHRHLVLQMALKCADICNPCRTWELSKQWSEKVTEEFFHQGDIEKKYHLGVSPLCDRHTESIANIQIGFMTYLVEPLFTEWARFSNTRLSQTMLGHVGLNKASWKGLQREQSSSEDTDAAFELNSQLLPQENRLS
Protocol: as §1

PDE3A = PDE3A (Homo sapiens, UniProt Q14432); assay: In vitro PDE selectivity assay, PDE3A; format: biochemical; conditions: Table 4a in vitro selectivity; read-out: IC50 PDE type 3A
Chain of PDE3A (Q14432 whole entry): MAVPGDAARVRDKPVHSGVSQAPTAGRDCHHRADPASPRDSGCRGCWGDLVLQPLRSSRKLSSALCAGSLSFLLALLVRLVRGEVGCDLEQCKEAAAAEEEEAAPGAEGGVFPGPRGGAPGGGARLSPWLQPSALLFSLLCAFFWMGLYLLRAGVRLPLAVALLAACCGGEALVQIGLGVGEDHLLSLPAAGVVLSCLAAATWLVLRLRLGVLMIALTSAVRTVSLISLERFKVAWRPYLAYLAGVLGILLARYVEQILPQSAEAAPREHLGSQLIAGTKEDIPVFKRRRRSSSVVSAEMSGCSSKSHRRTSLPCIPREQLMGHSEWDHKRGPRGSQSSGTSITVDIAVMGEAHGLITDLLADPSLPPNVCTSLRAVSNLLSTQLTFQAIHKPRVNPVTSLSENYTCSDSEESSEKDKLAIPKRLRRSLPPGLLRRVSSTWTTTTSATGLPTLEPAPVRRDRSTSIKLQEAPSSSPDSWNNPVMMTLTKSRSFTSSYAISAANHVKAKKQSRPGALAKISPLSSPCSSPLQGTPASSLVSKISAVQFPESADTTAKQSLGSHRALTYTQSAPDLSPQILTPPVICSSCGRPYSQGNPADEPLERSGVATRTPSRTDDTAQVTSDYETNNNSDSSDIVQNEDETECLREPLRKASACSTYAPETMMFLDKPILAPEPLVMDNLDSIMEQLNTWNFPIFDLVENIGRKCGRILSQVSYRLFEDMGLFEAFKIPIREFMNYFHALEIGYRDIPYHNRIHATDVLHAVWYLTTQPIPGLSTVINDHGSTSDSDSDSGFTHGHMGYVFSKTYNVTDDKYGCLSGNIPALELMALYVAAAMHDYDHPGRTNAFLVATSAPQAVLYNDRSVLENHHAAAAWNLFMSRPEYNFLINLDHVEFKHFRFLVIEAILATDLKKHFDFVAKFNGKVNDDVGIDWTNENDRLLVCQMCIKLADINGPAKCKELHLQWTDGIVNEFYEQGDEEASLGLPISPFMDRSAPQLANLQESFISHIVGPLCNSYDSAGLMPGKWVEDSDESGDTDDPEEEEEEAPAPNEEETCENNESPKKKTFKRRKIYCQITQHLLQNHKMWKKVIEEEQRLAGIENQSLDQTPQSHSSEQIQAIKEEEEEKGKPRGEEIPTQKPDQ
Protocol: as §1

PDE5A = PDE5A (Homo sapiens, UniProt O76074); assay: In vitro PDE selectivity assay, PDE5A; format: biochemical; conditions: Table 4a in vitro selectivity; read-out: IC50 PDE type 5A
Protocol: as §1

PDE1B = PDE1B (Homo sapiens, UniProt Q01064); assay: In vitro PDE selectivity assay, PDE1B; format: biochemical; conditions: Table 4a in vitro selectivity; read-out: IC50 PDE type 1B
Chain of PDE1B (Q01064 whole entry): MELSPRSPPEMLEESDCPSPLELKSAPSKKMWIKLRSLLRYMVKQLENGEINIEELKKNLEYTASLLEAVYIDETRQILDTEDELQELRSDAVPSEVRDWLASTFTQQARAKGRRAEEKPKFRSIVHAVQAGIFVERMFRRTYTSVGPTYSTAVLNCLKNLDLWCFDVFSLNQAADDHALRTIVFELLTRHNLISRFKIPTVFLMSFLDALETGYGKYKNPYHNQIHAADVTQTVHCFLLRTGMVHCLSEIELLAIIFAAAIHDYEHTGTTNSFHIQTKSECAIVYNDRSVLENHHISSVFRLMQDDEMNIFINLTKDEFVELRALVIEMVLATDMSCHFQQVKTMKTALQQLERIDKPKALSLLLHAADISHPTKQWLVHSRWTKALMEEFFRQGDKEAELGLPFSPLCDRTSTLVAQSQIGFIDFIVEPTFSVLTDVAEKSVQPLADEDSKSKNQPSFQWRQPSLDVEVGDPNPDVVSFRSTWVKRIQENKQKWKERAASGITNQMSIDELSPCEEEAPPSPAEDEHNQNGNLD
Protocol: as §1

[6] = pIC50 corresponds to the -log IC50 expressed in mol/L, read-out: PDE10A2 pIC50 (converted)

Chain of PDE2A (O00408 whole entry, species assumed): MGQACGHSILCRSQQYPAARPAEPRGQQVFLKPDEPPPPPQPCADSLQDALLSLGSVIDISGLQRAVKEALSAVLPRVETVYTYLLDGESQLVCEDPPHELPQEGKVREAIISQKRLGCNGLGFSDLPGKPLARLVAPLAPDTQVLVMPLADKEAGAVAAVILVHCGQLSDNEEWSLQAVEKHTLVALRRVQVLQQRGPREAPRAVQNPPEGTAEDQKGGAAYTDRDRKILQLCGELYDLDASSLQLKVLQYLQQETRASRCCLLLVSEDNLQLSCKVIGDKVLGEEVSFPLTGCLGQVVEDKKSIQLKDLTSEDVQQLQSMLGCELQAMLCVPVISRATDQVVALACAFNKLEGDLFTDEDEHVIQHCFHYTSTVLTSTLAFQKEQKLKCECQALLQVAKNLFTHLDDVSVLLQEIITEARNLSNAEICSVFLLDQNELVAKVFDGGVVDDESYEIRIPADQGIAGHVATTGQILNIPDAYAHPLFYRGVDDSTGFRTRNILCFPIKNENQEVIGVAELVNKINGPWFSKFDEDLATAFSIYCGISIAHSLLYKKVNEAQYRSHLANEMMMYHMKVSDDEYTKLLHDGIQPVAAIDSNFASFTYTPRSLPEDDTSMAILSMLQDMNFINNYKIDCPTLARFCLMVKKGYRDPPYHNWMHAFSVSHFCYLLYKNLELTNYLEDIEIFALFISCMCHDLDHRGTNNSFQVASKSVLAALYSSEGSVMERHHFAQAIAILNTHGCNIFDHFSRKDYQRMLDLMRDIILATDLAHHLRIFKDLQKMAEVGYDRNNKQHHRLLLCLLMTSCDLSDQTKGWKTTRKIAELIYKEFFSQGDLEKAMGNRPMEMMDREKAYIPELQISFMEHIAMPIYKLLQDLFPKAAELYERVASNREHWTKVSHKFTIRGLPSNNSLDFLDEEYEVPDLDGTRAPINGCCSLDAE

Compound	IC50 [1, 6]	ED50 ([2]; read-out: APO ED50)	ED50 [4]	ED50 (PDE10)	ED50 [5]	further results
c1cn2c(-c3cnn(CC4CC4)c3)cnc2c(N2CCOCC2)n1 [compound 119]	324 nM					Selectivity PDE2A (PDE2A; in vitro selectivity towards PDE10A versus PDE2A): ≧10 fold, except compound 119 (>3.02 fold selectivity); ED50 ([2]; not active at 2.5 or at 10 mg/kg, not further tested, read-out: APO ED50 (not active at threshold dose)): > 2.5 mg/kg
COc1cc2ncnc(N3CC[C@@H](Oc4cnc5ccccc5n4)C3)c2cc1OC [PQ10, 6,7-dimethoxy-4-[3(R)-(quinoxalin-2-yloxy)pyrrolidin-1-yl]quinazoline]						index of discrimination (d2), mean ([3]; 1 mg/kg p.o. + Scop. 0.1 mg/kg, 1 h delay): 0.27; discrimination compared to the vehicle/scopolamine condition (post-hoc analysis) ([3]; 1 mg/kg p.o. + scopolamine): significantly better discrimination
CO[C@@H](C)Cn1cc(-c2c(C)nc3c(N4CCOCC4)nccn23)cn1 [compound 57]		1.2 mg/kg	5 mg/kg	8 mg/kg		PDE10A2 pIC50 ([1]; pIC50 corresponds to the -log IC50 expressed in mol/L): 7.22
COCCc1ccc(-c2c(C)nc3c(N4CCOCC4)nccn23)cn1 [compound 16, 3-[6-(2-Methoxy-ethyl)-pyridin-3-yl]-2-methyl-8-morpholin-4-yl-imidazo[1,2-a]pyrazine]		1 mg/kg	2 mg/kg		1.54 mg/kg	
Cc1nc2c(N3CCOCC3)nccn2c1-c1cnn(CC(C)C)c1 [compound 97]		2 mg/kg	12.3 mg/kg		5.4 mg/kg	
COCCc1ncc(-c2c(C)nc3c(N4CCOCC4)nccn23)cn1 [compound 33, 3-[2-(2-Methoxy-ethyl)-pyrimidin-5-yl]-2-methyl-8-morpholin-4-yl-imidazo[1,2-a]pyrazine]	148 nM	0.8 mg/kg				IC50 (PDE2A; Table 4a in vitro selectivity, read-out: IC50 PDE type 2A): > 10000 nM; IC50 (PDE11A): > 10000 nM; IC50 (PDE9A; Table 4a in vitro selectivity, read-out: IC50 PDE type 9A): > 10000 nM; IC50 (PDE4D): > 10000 nM; IC50 (PDE7A): > 10000 nM; IC50 ([1]; Table 4a in vitro selectivity, read-out: IC50 PDE type 10A): 500 nM; IC50 (PDE3A): > 10000 nM; IC50 (PDE5A): > 10000 nM; IC50 (PDE1B): 2950 nM
COC(C)(C)Cn1cc(-c2c(C)nc3c(N4CCOCC4)nccn23)cn1 [compound 72]	95.5 nM	1.2 mg/kg		6.4 mg/kg	2 mg/kg	
Cc1nc2c(-c3ccncc3)nccn2c1-c1cnn(CC(C)C)c1 [compound 69]	89.1 nM	5 mg/kg			2 mg/kg	% Occ. at 10 mg/kg (PDE10): 67%
Cc1nc2c(N3CCOCC3)nccn2c1-c1cnn(CC2CC2(F)F)c1 (stereo not drawn) [compound 52]	52.5 nM	3.1 mg/kg		5.5 mg/kg	≤ 10 mg/kg	
COC(C)(C)Cn1cc(-c2c(C)nc3c(-c4ccncc4)nccn23)cn1 [compound 78]	105 nM	1.2 mg/kg				Selectivity PDE9 (PDE9A; in vitro selectivity towards PDE10A versus PDE9): >10-100 fold, except 78 (<10 fold selectivity); % Occ. at 10 mg/kg (PDE10): 76%
